From the PolyMetriX glass transition set
± gives the standard deviation of the reports.

Going from *CC(*)(C)C(=O)NC(C)c1cccc2ccccc12 (repeat unit) to *CCCCNC(=O)c1ccc(C(=O)N*)c(Sc2ccccc2)c1 (repeat unit), the glass transition temperature falls from 171.00 °C to 136.00 °C.

*CC(*)C (repeat unit) [Poly(propylene)] and *CC(*)C(=O)OC(CC)CC (repeat unit) are within error of each other in glass transition temperature: -24.6 ± 21 °C for the first, -6.00 °C for the second.

Compared with *O[Si](C)(C)[Si](*)(C)C (repeat unit), *O[Si](C)(C)Oc1ccc(*)cc1 (repeat unit) is higher in glass transition temperature: -119.00 °C for the first, 90.00 °C for the second.

Compared with *C(=O)Nc1ccc(Oc2ccc(C3(c4ccc(Oc5ccc(NC(=O)c6ccc7c(c6)C(=O)N(c6ccc(Oc8ccc(Oc9ccc(N%10C(=O)c%11ccc(*)cc%11C%10=O)cc9)c(C)c8)cc6)C7=O)cc5)cc4)NC(=O)c4ccccc43)cc2)cc1 (repeat unit), *C(=O)Nc1ccc(Oc2ccccc2-c2ccccc2Oc2ccc(NC(=O)c3ccc4c(c3)C(=O)N(c3ccc(Oc5ccc(S(=O)(=O)c6ccc(Oc7ccc(N8C(=O)c9ccc(*)cc9C8=O)cc7)cc6)cc5)cc3)C4=O)cc2)cc1 (repeat unit) is lower in glass transition temperature: 293.00 °C for the first, 236.00 °C for the second.

Going from *OC(=O)C(C)NC(=O)CCCCC(=O)NC(C)C(=O)OC1COC2C(*)COC12 (repeat unit) to *CCCC(C)(C)CNC(=O)CCCCCCCC(=O)N* (repeat unit), the glass transition temperature rises from 56.00 °C to 63.00 °C.

Compared with *CC(*)(C)C(=O)NC(=O)OC(C)COc1ccc(S(=O)(=O)c2ccc(OCC(C)O)cc2)cc1 (repeat unit), *CC(O)COc1ccc(C2CC(C(C)C)CCC2(C)c2ccc(O*)cc2)cc1 (repeat unit) is higher in glass transition temperature: 73.00 °C for the first, 175.00 °C for the second.

Compared with *Oc1cc(OC(=O)c2ccc(OCCCC)cc2)c(OC(=O)C(C)(C)CCC(*)=O)cc1OC(=O)c1ccc(OCCCC)cc1 (repeat unit), *Oc1ccc(CC(NC(=O)CCc2ccc(OC(=O)CCCCC(*)=O)cc2)C(=O)OCCCC)cc1 (repeat unit) is lower in glass transition temperature: 61.00 °C for the first, 46.00 °C for the second.

Going from *c1ccc(C(=O)Nc2ccc(-c3ccccc3NC(=O)c3ccc(S(*)(=O)=O)cc3)cc2)cc1 (repeat unit) to *Nc1ccc(NC(=O)c2ccc(C(*)=O)cc2)cc1 (repeat unit), the glass transition temperature rises from 284.00 °C to 295.00 °C.

Going from *Oc1ccc(/C=C2\CCC/C(=C\c3ccc(OC(=O)c4cccc(C(*)=O)c4)c(OC)c3)C2=O)cc1OC (repeat unit) to *c1ccc(Oc2ccc(C(=O)c3cccc(C(=O)c4ccc(Oc5ccc(-c6cc(*)n(-c7ccccc7)n6)cc5)cc4)c3)cc2)cc1 (repeat unit), the glass transition temperature rises from 57.86 °C to 190.00 °C.

First: *CC(*)(C)C(=O)OCCCCCCCCCCCCCC (repeat unit)
Second: *CCCCCCCCCCCCNC(=O)c1ccc(C(=O)N*)c(Sc2ccccc2)c1 (repeat unit)
The glass transition temperature of the first is lower: -72.00 °C for the first, 92.00 °C for the second.

First: *c1ccc(Oc2ccc(S(=O)(=O)c3ccc(Oc4ccc(N5C(=O)c6ccc(Oc7cccc8c(Oc9ccc%10c(c9)C(=O)N(*)C%10=O)cccc78)cc6C5=O)cc4)cc3)cc2)cc1 (repeat unit)
Second: *c1ccc(C(c2ccc(N3C(=O)c4ccc(Oc5cccc6c(Oc7ccc8c(c7)C(=O)N(*)C8=O)cccc56)cc4C3=O)cc2)(C(F)(F)F)C(F)(F)F)cc1 (repeat unit)
The glass transition temperature of the first is lower: 201.00 °C for the first, 276.00 °C for the second.

Compared with *c1ccc(-c2nnc(-c3cccc(-c4nnc(*)n4-c4ccccc4)c3)n2-c2ccccc2)cc1 (repeat unit), *c1cccc(P(=O)(c2ccccc2)c2cccc(-n3c(=O)c4c(-c5ccccc5)c5c(=O)n(*)c(=O)c5c(-c5ccccc5)c4c3=O)c2)c1 (repeat unit) is higher in glass transition temperature: 272.50 °C for the first, 342.00 °C for the second.

First: *CCCCCOC(=O)OCCCCCN1C(=O)c2ccc(-c3ccc4c(c3)C(=O)N(*)C4=O)cc2C1=O (repeat unit)
Second: *c1cc(Br)c(-c2c(Br)cc(N3C(=O)c4ccc(-c5ccc6c(c5)C(=O)N(*)C6=O)cc4C3=O)cc2C(=O)OCCCCCC)c(C(=O)OCCCCCC)c1 (repeat unit)
The glass transition temperature of the first is lower: 84.00 °C for the first, 154.00 °C for the second.

Compared with *CCCCOC(=O)O* (repeat unit), *CC(*)(C)C(=O)OCCC[Si](O[Si](C)(C)C)(O[Si](C)(C)C)O[Si](C)(C)C (repeat unit) is higher in glass transition temperature: -27.00 °C for the first, 72.4 °C for the second.

First: *CC(*)c1ccc(COCCC)cc1 (repeat unit) [Poly(p-n-propoxymethyl styrene) ]
Second: *CCCCCCCCC(c1ccc(O)cc1)C(*)c1ccc(O)cc1C (repeat unit)
The glass transition temperature of the first is higher: 22 ± 1.2 °C for the first, -12.00 °C for the second.

First: *C1CCC(N2C(=O)c3ccc(S(=O)(=O)c4ccc5c(c4)C(=O)N(*)C5=O)cc3C2=O)CC1 (repeat unit)
Second: *c1cccc(N2C(=O)c3ccc(Oc4cc5ccccc5cc4Oc4ccc5c(c4)C(=O)N(*)C5=O)cc3C2=O)c1 (repeat unit)
The glass transition temperature of the first is higher: 363.00 °C for the first, 237.00 °C for the second.

Going from *c1cccc(N2C(=O)c3c(c(-c4ccccc4)c(-c4ccc(-c5c(-c6ccccc6)c6c(c(-c7ccccc7)c5-c5ccccc5)C(=O)N(*)C6=O)cc4)c(-c4ccccc4)c3-c3ccccc3)C2=O)c1 (repeat unit) to *c1ccc(Oc2ccc(-c3ccc(Oc4ccc(-c5nnc(*)c6c(-c7ccccc7)c(-c7ccc8ccccc8c7)c(-c7ccc8ccccc8c7)c(-c7ccccc7)c56)cc4)cc3)cc2)cc1 (repeat unit), the glass transition temperature falls from 416.00 °C to 334.00 °C.

First: *Oc1c(Br)cc(C(c2cc(Br)c(OC(*)=O)c(Br)c2)(C(F)(F)F)C(F)(F)F)cc1Br (repeat unit)
Second: *Oc1ccc(Sc2ccc(OC(*)=O)cc2)cc1 (repeat unit) [Poly(4,4'-thiodiphenylene carbonate)]
The glass transition temperature of the first is higher: 206.00 °C for the first, 113.4 ± 2.1 °C for the second.

First: *CC(*)(F)C(F)(F)F (repeat unit)
Second: *C(F)C(*)(F)F (repeat unit)
The glass transition temperature of the first is higher: 49.00 °C for the first, 31.5 °C for the second.

First: *CC(*)c1cc(-c2ccc(C(=O)OC(C)CCCCCC)cc2)ccc1-c1ccc(C(=O)OC(C)CCCCCC)cc1 (repeat unit)
Second: *CC(*)(C)C(=O)OCC(C)Oc1ccc(-c2ccc(-c3ccc(C#N)cc3)cc2)cc1 (repeat unit)
The glass transition temperature of the first is lower: 102.00 °C for the first, 140.00 °C for the second.

First: *C(=O)OCCCCCCCCCCCCCCCCCCCCCCOC(=O)c1ccc(N2C(=O)c3ccc(*)cc3C2=O)cc1 (repeat unit)
Second: *c1ccc2c(c1)C(CCCCCC)(CCCCCC)c1cc(-c3cc(OCCCCCCCC)c(*)cc3OCCCCCCCC)ccc1-2 (repeat unit)
The glass transition temperature of the first is lower: 44.00 °C for the first, 58.00 °C for the second.

Compared with *=NP(=NP(=NC(=*)Oc1ccc(OC)cc1)(Oc1ccc(OC)cc1)Oc1ccc(OC)cc1)(Oc1ccc(OC)cc1)Oc1ccc(OC)cc1 (repeat unit), *c1ccc(Oc2ccc(C(=O)c3ccc(Oc4ccc(-c5c6c(c(*)c7ccccc57)C(=O)N(c5ccccc5)C6=O)cc4)cc3)cc2)cc1 (repeat unit) is higher in glass transition temperature: 37.00 °C for the first, 273.50 °C for the second.

*CCOC(=O)Nc1ccc(Cc2ccc(NC(=O)OCCOc3ccc(C(C)(C)c4ccc(O*)cc4)cc3)cc2)cc1 (repeat unit) and *CC(O)COc1ccc(C(C)(C)c2ccc(OCC(O)COc3ccc(C(=O)Nc4ccc(O*)cc4)cc3)cc2)cc1 (repeat unit) are the same in glass transition temperature: 127.00 °C for the first, 127.00 °C for the second.

Compared with *Oc1ccc(C(C)(C)c2ccc(Oc3ccc(C(=O)c4ccc(P(=O)(c5ccccc5)c5ccc(C(=O)c6ccc(*)cc6)cc5)cc4)cc3)cc2)cc1 (repeat unit), *Oc1ccc(S(=O)(=O)c2ccc(Oc3ccc(S(=O)(=O)c4ccc(-c5ccc(-c6ccc(S(=O)(=O)c7ccc(*)cc7)cc6)cc5)cc4)cc3)cc2)cc1 (repeat unit) is higher in glass transition temperature: 195.00 °C for the first, 281.00 °C for the second.

Going from *O[Si](*)(CCCOCCOC)CCCOCCOC (repeat unit) to *Oc1ccc(C2(c3ccc(OC(=O)CCCCCCCC(*)=O)cc3)c3ccccc3-c3ccccc32)cc1 (repeat unit), the glass transition temperature rises from -55.00 °C to 150.00 °C.

Compared with *c1ccc(-c2cc(CCCCCCCC)c(-c3ccc(-c4ccc(-c5sc(-c6ccc([Si](CCCC)(CCCC)[Si](*)(CCCC)CCCC)s6)cc5CCCCCCCC)s4)s3)s2)s1 (repeat unit), *c1ccc(CCc2ccccc2N2C(=O)C(=O)N(c3ccc(Oc4ccc(N5C(=O)C(=O)N(*)C5=O)cc4)cc3)C2=O)cc1 (repeat unit) is higher in glass transition temperature: -10.00 °C for the first, 208.00 °C for the second.

Going from *c1[nH]c2ccccc2c1* (repeat unit) to *Oc1ccc(C(=O)c2ccc(*)cc2)cc1 (repeat unit), the glass transition temperature rises from 137.00 °C to 154.00 °C.

Compared with *C(=O)Nc1ccc(Oc2ccc(-c3ccc(Oc4ccc(NC(=O)c5ccc6c(c5)C(=O)N(c5ccc(C)c(N7C(=O)c8ccc(*)cc8C7=O)c5)C6=O)cc4)cc3)cc2)cc1 (repeat unit), *c1ccc(C(C)(C)c2ccc(N3C(=O)c4ccc(Oc5ccc6cc(Oc7ccc8c(c7)C(=O)N(*)C8=O)ccc6c5)cc4C3=O)cc2)cc1 (repeat unit) is lower in glass transition temperature: 299.00 °C for the first, 236.00 °C for the second.

First: *Sc1ccc(Sc2ccc(Sc3ccc4c(c3)C(=O)N(N3C(=O)c5ccc(*)cc5C3=O)C4=O)cc2)cc1 (repeat unit)
Second: *c1c(C)cc(Cc2cc(C)c(N3C(=O)c4ccc(Oc5cccc6c(Oc7ccc8c(c7)C(=O)N(*)C8=O)cccc56)cc4C3=O)c(C)c2)cc1C (repeat unit)
The glass transition temperature of the first is lower: 223.50 °C for the first, 281.00 °C for the second.

Going from *C1OC(C(F)(F)F)(C(F)(F)F)OC1(*)F (repeat unit) to *C1OCOC(C(*)(F)F)C1(F)F (repeat unit), the glass transition temperature falls from 256.00 °C to 125.00 °C.

First: *Oc1ccc(Sc2ccc(OC3(F)C(*)(F)C(F)(F)C3(F)F)cc2)cc1 (repeat unit)
Second: *c1ccc(Oc2cccc(-c3cc(-c4ccccc4)cc(-c4cccc(Oc5ccc(-n6c(=O)c7cc8c(=O)n(*)c(=O)c8cc7c6=O)cc5)c4)n3)c2)cc1 (repeat unit)
The glass transition temperature of the first is lower: 78.00 °C for the first, 264.00 °C for the second.

*C(=O)Nc1cc(NC(=O)c2ccc3c(c2)C(=O)N(c2cc(-c4nnc(-c5ccccn5)o4)cc(N4C(=O)c5ccc(*)cc5C4=O)c2)C3=O)cc(-c2nnc(-c3ccccn3)o2)c1 (repeat unit) gave a glass transition temperature of 164.00 °C.
